Data from patent US20230107941A1, “HEPATITIS B CAPSID ASSEMBLY MODULATORS” (Venatorx Pharmaceuticals, Inc., priority 2019, published 2023).

Experiments:
HBV = assay: In vitro antiviral assay: anti-HBV replication in HepAD38 cells (extracellular HBV DNA by QPCR); assay type: cell-based, hepatitis B virus (genotype D, serotype ayw); conditions: Hepatitis B virus, HePAD38, 168 h, 7 days incubation, extracellular HBV DNA by QPCR, read-out: Anti-HBV EC50
Method: The anti-HBV activity of the Capsid Assembly Modulators (CAMs) was evaluated in a cell based assay utilizing the human hepatoma cell line HepAD38 (Ladner, S K., et al., 1998). HepAD38 cells were derived from the parental line, HepG2, that were stably transfected with a construct containing an HBV genome (genotype D, serotype ayw) under the control of a tetracycline repressible CMV promoter. Upon removal of tetracycline, viral pre-genomic RNA (pgRNA) and mRNAs are expressed and infectious viral particles are assembled and secreted into the culture medium providing a reliable, robust system to measure multiple steps of the HBV life cycle. Disruption of capsid formation results in reduced levels of DNA-containing virus particles that are released into the culture supernatant. To quantify the effect of CAMs on HBV replication, we developed a sensitive QPCR-based assay that measures extracellular HBV DNA levels upon treatment of HepAD38 cells with various concentrations of test compounds.
HepAD38 cells were maintained in DMEM/F12 medium containing 10% FBS, 400 μg/mL G418 and 0.3 μg/mL tetracycline (tet+ media) to maintain repression of HBV replication. To evaluate each compound, HepAD38 cells were seeded into 24-well collagen coated culture plates (Corning BioCoat) at a density of 200,000 cells per well in 1 mL of medium without tetracycline (tet-media) and allowed to adhere overnight at 37° C., 5% CO2 in a humidified incubator. The following day, media was refreshed and a dose range of each compound was prepared by performing 1 log10 serial dilutions in 100% DMSO at 200× the desired assay concentration. Dilutions were then added to the cells resulting in a final dose range of 1 μM to 10 pM and the plates were returned to the incubator. Following 7 days of incubation, culture supernatants were harvested and HBV DNA levels were evaluated by QPCR and compared to the vehicle treated control wells (i.e. DMSO alone).
To quantify HBV DNA levels, cell culture supernatants were diluted 1:10 in sterile, nuclease-free water (Gibco). The diluted supernatants were subsequently added to a PCR master mix containing 1× Roche Light Cycler Master Mix, 0.5 μM forward primer, 0.5 μM reverse primer (Fwd: 5′-[…] (SEQ ID NO 1); Rev: 5′-[…] (SEQ ID NO 2)), 0.2 μM Roche Universal Probe Library Probe 25. The volume was brought to 20 μL with nuclease-free water and amplification of the HBV target sequence was performed using a Roche LightCycler 480 QPCR instrument. PCR extended out to 45 cycles with each cycle consisting of a denaturation step at 95° C. for 10 sec., followed by an annealing step at 60° C. for 10 sec. and a brief extension step at 72° C. for 1 sec.
Extracellular HBV DNA levels, expressed in copies/mL, were determined by comparison to a standard curve (10^2-10^9 copies/mL) using the Roche LightCycler analysis software. These values were subsequently converted to percent inhibition of HBV replication by dividing the HBV DNA levels in the experimental samples with those obtained from the vehicle control (˜1-2×10^5 copies/mL). Potency, expressed as an EC50 (the effective concentration required to inhibit 50% of HBV replication), was calculated from the dose-response curve using a 4-parameter non-linear regression analysis (GraphPad Prism). The nucleoside analog inhibitor entecavir was used as a positive control to validate each assay run. The EC50 value of entecavir in the HepAD38 assay was 0.5 nM, as previously reported in the literature.

[1] = In vitro cytotoxicity assay (MTT cell viability) in HepG2 cells; assay type: cell-based, human; conditions: human
Method: To evaluate antiviral selectivity, the cytotoxic activity of each compound was determined using a standard cell viability assay performed on the parental HepG2 cell line. Cell viability was determined by measuring the conversion of 3-(4,5-dimethylthiazol-2-yl)-2,5-diphenyltetrazolium bromide (MTT) to the insoluble formazan salt crystal that occurs in live cells. Briefly, HepG2 cells were seeded in 96-well plates at a density of 20,000 cells per well in […] (complete growth medium) and allowed to adhere overnight in a 37° C., […] humidified incubator. The next day, test agents were prepared by performing 8 half-log10 serial dilutions in 100% DMSO at 200× the final desired concentration in the assay. Compounds were tested over a range of concentrations from 30 μM to 1.0 nM in the assay. HepG2 cells were incubated in the presence of various concentrations of CAMs for 7 days in a 37° C., […] humidified incubator. At the completion of the 7-day incubation period, MTT reagent was added to each well and the mixture was incubated for an additional 3-4 hours. At the completion of the incubation period, all wells were aspirated to remove the culture medium. The formazan crystals were solubilized from the cell monolayers with 100% DMSO. Plates were briefly mixed on an orbital shaker and absorbance was measured at 492 nm using a Perkin-Elmer EnVision multi-label plate reader. All absorbance values were converted to a percentage of the signal obtained from the vehicle treated controls. Absorbance values at 492 nm are directly proportional to the number of viable cells present in the sample. A CC50 value (cytotoxic concentration that results in loss of 50% cell viability) was calculated from the dose-response curve by 4-parameter, non-linear regression analysis using the GraphPad Prism software. The positive control compound, staurosporine, reduced the viability of HepG2 cells in a dose-dependent manner (CC50=100 nM).

Compound	EC50 (HBV) [nM]	CC50 at 7 days [1] [nM]
Cc1c(C(=O)Nc2ccc(F)c(C#N)c2)c(C)n(C)c1C(=O)C(=O)N[C@]1(C)CC[C@@H](O)CC1 [Example 16, N-(3-cyano-4-fluorophenyl)-5-(2-(((1r,4r)-4-hydroxy-1-methylcyclohexyl)amino)-2-oxoacetyl)-1,2,4-trimethyl-1H-pyrrole-3-carboxamide]	< 50	> 30000
Cc1c(C(=O)Nc2ccc(F)c(C#N)c2)c(C)n(C)c1C(=O)C(=O)N[C@H]1CC[C@@H](O)CC1 [Example 17, N-(3-cyano-4-fluorophenyl)-5-(2-(((1s,4s)-4-hydroxycyclohexyl)amino)-2-oxoacetyl)-1,2,4-trimethyl-1H-pyrrole-3-carboxamide]	< 50	> 30000
Cc1c(C(=O)Nc2ccc(F)c(Br)c2)c(C)n(C)c1C(=O)C(=O)N[C@]1(C)CC[C@@H](O)CC1 [Example 18, N-(3-bromo-4-fluorophenyl)-5-(2-(((1r,4r)-4-hydroxy-1-methylcyclohexyl)amino)-2-oxoacetyl)-1,2,4-trimethyl-1H-pyrrole-3-carboxamide]	< 50	> 30000
Cc1c(C(=O)Nc2ccc(F)c(Br)c2)c(C)n(C)c1C(=O)C(=O)N[C@H]1CC[C@@H](O)CC1 [Example 19, N-(3-bromo-4-fluorophenyl)-5-(2-(((1s,4s)-4-hydroxycyclohexyl)amino)-2-oxoacetyl)-1,2,4-trimethyl-1H-pyrrole-3-carboxamide]	< 50	> 30000
Cc1cc(NC(=O)c2c(C)c(C(=O)C(=O)N[C@H]3[C@@H]4CC[C@@H](C4)[C@H]3CO)n(C)c2C)ccc1F [Example 20, N-(4-fluoro-3-methylphenyl)-5-(2-(((1R,2S,3R,4S)-3-(hydroxymethyl)bicyclo[2.2.1]heptan-2-yl)amino)-2-oxoacetyl)-1,2,4-trimethyl-1H-pyrrole-3-carboxamide]	< 50	> 30000
Cc1cc(NC(=O)c2c(C)c(C(=O)C(=O)N[C@H]3[C@H]4CC[C@H](C4)[C@H]3CO)n(C)c2C)ccc1F [Example 21, N-(4-fluoro-3-methylphenyl)-5-(2-(((1S,2S,3R,4R)-3-(hydroxymethyl)bicyclo[2.2.1]heptan-2-yl)amino)-2-oxoacetyl)-1,2,4-trimethyl-1H-pyrrole-3-carboxamide]	< 50	> 30000
Cc1cc(NC(=O)c2c(C)c(C(=O)C(=O)N[C@H]3C[C@@H]4CC[C@H]3C4)n(C)c2C)ccc1F [Example 22, 5-(2-(((1S,2S,4R)-bicyclo[2.2.1]heptan-2-yl)amino)-2-oxoacetyl)-N-(4-fluoro-3-methylphenyl)-1,2,4-trimethyl-1H-pyrrole-3-carboxamide]	< 50	5000 to 30000
Cc1cc(NC(=O)c2c(C)c(C(=O)C(=O)NC3C[C@H]4C[C@@H]3CC4O)n(C)c2C)ccc1F (stereo partly drawn) [Example 23, N-(4-fluoro-3-methylphenyl)-5-(2-(((1R,4R)-5-hydroxybicyclo[2.2.1]heptan-2-yl)amino)-2-oxoacetyl)-1,2,4-trimethyl-1H-pyrrole-3-carboxamide]	< 50	> 30000
Cc1cc(NC(=O)c2c(C)c(C(=O)C(=O)NC3C[C@@H]4CC(O)[C@H]3C4)n(C)c2C)ccc1F (stereo partly drawn) [Example 24, N-(4-fluoro-3-methylphenyl)-5-(2-(((1S,4R)-6-hydroxybicyclo[2.2.1]heptan-2-yl)amino)-2-oxoacetyl)-1,2,4-trimethyl-1H-pyrrole-3-carboxamide]	< 50	> 30000
Cc1c(C(=O)Nc2cc(F)c(F)c(F)c2)c(C)n(C)c1C(=O)C(=O)N[C@]1(C)CC[C@@H](O)CC1 [Example 25, 5-(2-(((1r,4r)-4-hydroxy-1-methylcyclohexyl)amino)-2-oxoacetyl)-1,2,4-trimethyl-N-(3,4,5-trifluorophenyl)-1H-pyrrole-3-carboxamide]	< 50	> 30000
CCOC(=O)CO[C@H]1CC[C@@H](NC(=O)C(=O)c2c(C)c(C(=O)Nc3ccc(F)c(C)c3)c(C)n2C)CC1 [Example 26, ethyl 2-(((1s,4s)-4-(2-(4-((4-fluoro-3-methylphenyl)carbamoyl)-1,3,5-trimethyl-1H-pyrrol-2-yl)-2-oxoacetamido)cyclohexyl)oxy) acetate]	> 1000	> 30000
Cc1cc(NC(=O)c2c(C)c(C(=O)C(=O)NC3(C)CCN(CC(=O)O)CC3)n(C)c2C)ccc1F [Example 27, 2-(4-(2-(4-((4-fluoro-3-methylphenyl)carbamoyl)-1,3,5-trimethyl-1H-pyrrol-2-yl)-2-oxoacetamido)-4-methylpiperidin-1-yl)acetic acid]	500 to 1000	> 30000
Cc1cc(NC(=O)c2c(C)c(C(=O)C(=O)N[C@H]3CCN(CC(=O)O)C3)n(C)c2C)ccc1F [Example 28, (S)-2-(3-(2-(4-((4-fluoro-3-methylphenyl)carbamoyl)-1,3,5-trimethyl-1H-pyrrol-2-yl)-2-oxoacetamido)pyrrolidin-1-yl)acetic acid]	> 1000	> 30000
Cc1c(C(=O)NC23CCC(O)(CC2)CC3)c(C)n(C)c1C(=O)C(=O)Nc1cccnc1 [Example 29, N-(4-hydroxybicyclo[2.2.2]octan-1-yl)-1,2,4-trimethyl-5-(2-oxo-2-(pyridin-3-ylamino)acetyl)-1H-pyrrole-3-carboxamide]	> 1000	> 30000
Cc1noc(C2(NC(=O)c3c(C)c(C(=O)C(=O)Nc4cccnc4)n(C)c3C)CC2)n1 [Example 30, 1,2,4-trimethyl-N-(1-(3-methyl-1,2,4-oxadiazol-5-yl)cyclopropyl)-5-(2-oxo-2-(pyridin-3-ylamino)acetyl)-1H-pyrrole-3-carboxamide]	> 1000	> 30000
Cc1cc(NC(=O)c2c(C)c(C(=O)C(=O)NC3CC(S(C)(=O)=O)C3)n(C)c2C)ccc1F (stereo not shown) [Example 31, N-(4-fluoro-3-methylphenyl)-1,2,4-trimethyl-5-(2-(((1s,3s)-3-(methylsulfonyl)cyclobutyl)amino)-2-oxoacetyl)-1H-pyrrole-3-carboxamide]	< 50	> 30000
Cc1c(C(=O)Nc2ccc(F)c(F)c2)c2n(c1C(=O)C(=O)NC1(C)CCN(C(=O)Nc3ccc(F)c(F)c3)CC1)CCCC2 [Example 33, N-(3,4-difluorophenyl)-3-(2-((1-((3,4-difluorophenyl)carbamoyl)-4-methylpiperidin-4-yl)amino)-2-oxoacetyl)-2-methyl-5,6,7,8-tetrahydroindolizine-1-carboxamide]	< 50	500 to 4990
